Here are results for nine molecules from PubChem BioAssay (NCI).

Test systems include NCI-H23 lung; SNB-75 CNS; SF-539 CNS; ACHN renal; NCI-H226 lung; SNB-19 CNS; EKVX NSCLC; MDA-MB-231 breast; KM12 colon; NCI/ADR-RES ovarian.
What all share (test): inhibition of tumour cell growth, NCI panel, 48 h

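Cultured in 96-well plates, cells were exposed to test compound for 48 hours across five concentrations. Abbreviation: GI50, concentration required for 50% inhibition of growth. TGI is the concentration that stops growth completely.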

As for `CCCCCCC1CCCCN1C(c1ccccc1)C(O)c1ccccc1` (stereo not drawn), the GI50 in the assay with NCI-H23 lung was 6.33 µM; in the assay with SNB-75 CNS, 11.4 µM; in the assay on SF-539 CNS, 11.6 µM; in the assay on ACHN renal, 10 µM; in the assay with NCI-H226 lung, 7.74 µM; in the assay with SNB-19 CNS, 15.1 µM. The GI50 with EKVX NSCLC was 5.87 µM; with MDA-MB-231 breast, 6.79 µM; in the assay with KM12 colon, 6.07 µM; with NCI/ADR-RES ovarian, 10.1 µM. Further, the TGI in the assay on NCI-H23 lung came out at 20.9 µM; in the assay on SNB-75 CNS, 23.7 µM; in the assay with SF-539 CNS it was 24.3 µM; in the assay on ACHN renal it was 21.6 µM; with NCI-H226 lung, 21.9 µM; in the assay on SNB-19 CNS, 30 µM. Also, the TGI was 21.3 µM in the assay with EKVX NSCLC, 20.3 µM with MDA-MB-231 breast, 19.4 µM with KM12 colon and 22.9 µM with NCI/ADR-RES ovarian.
On to `C=C1CCC2C(C)(CO)C(O)CCC2(C)C1C/C=C1\C(=O)OCC1O` (stereo not drawn), for which the TGI is 49.8 µM with NCI-H23 lung; 30.5 µM in the assay on SNB-75 CNS; 44.3 µM with SF-539 CNS; greater than 100 µM in the assay on ACHN renal; greater than 100 µM in the assay with NCI-H226 lung; greater than 100 µM in the assay on SNB-19 CNS. Also, the TGI with EKVX NSCLC was 99.7 µM; in the assay with MDA-MB-231 breast, 58.9 µM; in the assay with KM12 colon it was 27.2 µM; in the assay with NCI/ADR-RES ovarian, greater than 100 µM.
For the molecule `Fc1nc(Sc2ncnc3nc[nH]c23)nc(-c2c3ccccc3c3sc4ccccc4n23)n1`, the TGI in the assay with NCI-H23 lung, in the assay with SNB-75 CNS, in the assay with SF-539 CNS, in the assay with ACHN renal, in the assay with NCI-H226 lung and in the assay on SNB-19 CNS was greater than 100 µM each time. The TGI in the assay on EKVX NSCLC, in the assay with MDA-MB-231 breast, in the assay with KM12 colon and in the assay with NCI/ADR-RES ovarian was greater than 100 µM throughout.
Regarding `COc1ccc([C@H]2c3[nH]c4ccccc4c3C[C@H]3C(=O)N(CCCCCCC(=O)NO)CC(=O)N23)cc1`, the GI50 is 1.96 µM in the assay with NCI-H23 lung; 1.12 µM in the assay with SNB-75 CNS; 2.38 µM in the assay on SF-539 CNS; 1.92 µM in the assay with ACHN renal; 6.26 µM with NCI-H226 lung; 4.34 µM with SNB-19 CNS. Also, the GI50 in the assay with EKVX NSCLC was 13.4 µM; with MDA-MB-231 breast it was 2.27 µM; with KM12 colon, 2.73 µM; in the assay on NCI/ADR-RES ovarian it was 4.26 µM. Moreover, the TGI with NCI-H23 lung is 28.7 µM; with SNB-75 CNS, greater than 33.3 µM; in the assay on SF-539 CNS it was greater than 33.3 µM; with ACHN renal it was 12.8 µM; in the assay on NCI-H226 lung, greater than 33.3 µM; with SNB-19 CNS, greater than 33.3 µM. The TGI in the assay with EKVX NSCLC, in the assay with MDA-MB-231 breast, in the assay on KM12 colon and with NCI/ADR-RES ovarian was greater than 33.3 µM in each case.
For `COC(=O)c1sc(=S)c2sc(C(=O)OC)c(C(=O)OC)c2c1C(=O)OC`, the GI50 in the assay on NCI-H23 lung was 44.8 µM; in the assay on SNB-75 CNS, 52 µM; in the assay on SF-539 CNS, 36.7 µM; in the assay on ACHN renal, 40.3 µM; in the assay with NCI-H226 lung it was 42 µM; in the assay with SNB-19 CNS, 86.7 µM. In addition, the GI50 with EKVX NSCLC is 89.9 µM; in the assay on MDA-MB-231 breast, 36.3 µM; with KM12 colon, 36.4 µM; in the assay on NCI/ADR-RES ovarian, 35.4 µM. Further, the TGI in the assay with NCI-H23 lung, in the assay with SNB-75 CNS, in the assay with SF-539 CNS, in the assay on ACHN renal, in the assay with NCI-H226 lung and in the assay with SNB-19 CNS was greater than 100 µM throughout. The TGI in the assay on EKVX NSCLC, in the assay on MDA-MB-231 breast, in the assay on KM12 colon and in the assay on NCI/ADR-RES ovarian was greater than 100 µM in each case.
Turning to `NCC[PH+](c1ccccc1)c1ccccc1.NCC[PH+](c1ccccc1)c1ccccc1.[Cl-].[Pt+4]`, the GI50 was greater than 100 µM in the assay with NCI-H23 lung; greater than 100 µM in the assay with SNB-75 CNS; greater than 100 µM with SF-539 CNS; greater than 100 µM with ACHN renal; greater than 100 µM in the assay on NCI-H226 lung; 46.1 µM in the assay with SNB-19 CNS. Besides, the GI50 in the assay on EKVX NSCLC, in the assay with MDA-MB-231 breast, in the assay on KM12 colon and in the assay with NCI/ADR-RES ovarian was greater than 100 µM throughout. The TGI in the assay with NCI-H23 lung, in the assay with SNB-75 CNS, in the assay on SF-539 CNS, in the assay on ACHN renal, with NCI-H226 lung and in the assay on SNB-19 CNS was greater than 100 µM in each case. In addition, the TGI in the assay on EKVX NSCLC, in the assay on MDA-MB-231 breast, in the assay on KM12 colon and with NCI/ADR-RES ovarian was greater than 100 µM throughout.
On to `O=c1ccc(=O)c2c1c1[nH]c3ccccc3c1c1c(=O)c3ccccc3c(=O)c21`, for which the TGI with NCI-H23 lung, in the assay on SNB-75 CNS, in the assay with SF-539 CNS, in the assay on ACHN renal, in the assay on NCI-H226 lung and in the assay on SNB-19 CNS was greater than 10 µM each time. Moreover, the TGI with EKVX NSCLC, in the assay with MDA-MB-231 breast, in the assay with KM12 colon and in the assay on NCI/ADR-RES ovarian was greater than 10 µM in each case.
Turning to `CN(C)CC(=O)N1CCc2c([nH]c3ccccc23)C1c1cccnc1` (stereo not drawn), the TGI in the assay with NCI-H23 lung, with SNB-75 CNS, with SF-539 CNS, in the assay on ACHN renal, in the assay on NCI-H226 lung and with SNB-19 CNS was greater than 100 µM in each case. The TGI with EKVX NSCLC was greater than 100 µM; in the assay with MDA-MB-231 breast it was 83.5 µM; in the assay on KM12 colon, greater than 100 µM; in the assay with NCI/ADR-RES ovarian, greater than 100 µM. The GI50 in the assay on NCI-H226 lung was greater than 100 µM; in the assay with MDA-MB-231 breast, 21.5 µM; with NCI/ADR-RES ovarian, greater than 100 µM.
On to `COc1ccc(-c2nn(-c3cccc(Cl)c3)cc2-c2c(C#N)c(=O)n3[nH]c(-c4ccc(C)o4)nc3c2C#N)cc1`, for which the GI50 was 8.09 µM with NCI-H23 lung; 1.56 µM with SNB-75 CNS; 5.67 µM with SF-539 CNS; 7.61 µM in the assay on ACHN renal; 7.35 µM in the assay with NCI-H226 lung; 8.63 µM in the assay with SNB-19 CNS. The GI50 in the assay with EKVX NSCLC was 1.54 µM; with MDA-MB-231 breast, 4.7 µM; in the assay on KM12 colon, 3.54 µM; in the assay on NCI/ADR-RES ovarian, greater than 50 µM. Also, the TGI in the assay on NCI-H23 lung, in the assay on SNB-75 CNS, in the assay with SF-539 CNS, in the assay with ACHN renal, with NCI-H226 lung and in the assay on SNB-19 CNS was greater than 50 µM in each case. Also, the TGI in the assay on EKVX NSCLC was 40.8 µM; in the assay on MDA-MB-231 breast, 36.9 µM; in the assay on KM12 colon, greater than 50 µM; in the assay with NCI/ADR-RES ovarian, greater than 50 µM.
